Assays:
eDHFR-Luc [1] = assay: Degradation of luciferase in Jurkat-DL cells, luminescence; format: cell-based, Escherichia coli; conditions: 4, 8 and 18 h, varying doses
[2] = system: FAP CAR-eDHFR direct fusion (DF); assay: Dose response of surface CAR expression in primary human FAP-eDHFR DF CAR T cells, flow cytometry; format: cell-based; conditions: for degradation / downregulation of CAR molecules from the surface of CAR T cells: primary human FAP-eDHFR CAR T cells
Description: Generated CAR T cells were pelleted, resuspended in 2% BSA in PBS (Invitrogen), and incubated with Alexa Fluor® 647 AffiniPure F(ab′2) fragment goat anti-mouse IgG (Jackson ImmunoResearch Laboratories) for 30 minutes at room temperature. Stained cells were washed 3 times with PBS, and were analyzed on a flow cytometer (LSR II, BD Biosciences) for CAR and/or BFP expression. All flow data were analyzed using FlowJo software (FlowJo).
Following incubation, the cells were washed and stained with Alexa Fluor® 647 AffiniPure F(ab′2) fragment goat anti-mouse IgG (Jackson ImmunoResearch Laboratories) as described under “Flow Cytometry”, and their surface expression was analyzed on a flow cytometer (LSR II, BD Biosciences).
Data plotted as raw CAR stain fluorescence is shown in the left panel and percent of maximum CAR expression is shown in the right panel.
Values are reported as percent of maximum CAR expression (i.e. relative to CAR T cells that were treated with vehicle control). Each color represents a different donor (n=3).

eDHFR-Luc [3] = assay: Time course in OVCAR8 eDHFR-Luc cells, luminescence; format: cell-based, Escherichia coli; conditions: between 390 and 24 nM
Description: OVCAR8^eDHR-luc+ cells were plated in black wall/clear bottom (Falcon) 96-well plates (4×10^4 cells/well) in 200 uL of complete media and incubated with serially diluted compound 7c at −48, −24, −12, −8 and −4 h and analyzed together at 0 h (t=0). Luciferin is prepared to 1× with complete media and 50 uL of Luciferin solution is added to the cells which are then analyzed by plate reader (ThermoFisher Varioskan Plusplate).
After the addition of Luciferin/complete media solution, luminescence was measured at the same time (t=0) by plate reader. 90% degradation of eDHFR-luc measured in 12 h between 390 and 24 nM, and 95% degradation of eDHFR-luc measured in 24 h between 390 and 24 nM.

[4] = system: FAP CAR-eDHFR direct fusion (DF); assay: Washout kinetic assay of CAR expression in primary human FAP-eDHFR DF CAR T cells; format: cell-based; conditions: 100 nM, washout after 24 h
Description: Following a 24 hour incubation with TMP-POM 7c, the remaining cells were washed multiple times with […] (Corning) to remove the drug, returned to culture in a new 12-well plate, and then again sampled serially at different time points following the wash (3, 6, 24, 48, and 72 hours post-washout). All cells were stained for CAR and fixed in 4% following sampling, and were analyzed on a flow cytometer (LSR II, BD Biosciences).
Following 24-hour incubation with TMP-POM 7c, the cells were washed multiple times to remove the drug (red arrow), seeded on a new plate, and then again sampled serially following the drug washout. All cells were stained for CAR and fixed in 4% following sampling.

[5] = system: FAP CAR-eDHFR direct fusion (DF); assay: Inhibitor test in primary human FAP-eDHFR DF CAR T cells, flow cytometry; format: cell-based; conditions: primary human FAP-eDHFR DF CAR T cells
Description: Following pre-incubation, either 100 nM 7c or vehicle control DMSO (Sigma) was added to the wells, and cells were incubated with the drug for another 4 hours. Following incubation, the cells were washed and their surface CAR expression was assessed on a flow cytometer (BD Biosciences).
Following pre-incubation, the cells were incubated with 100 nM 7c for 4 hours and their CAR expression was assessed on a flow cytometer.

Structure (SMILES): COc1cc(Cc2cnc(N)nc2N)cc(OC)c1OCCCC(=O)NCCOCCOCCNc1cccc2c1C(=O)N(C1CCC(=O)NC1=O)C2=O (stereo not drawn) [Compound 7c, 4-(4-((2,4-diaminopyrimidin-5-yl)methyl)-2,6-dimethoxyphenoxy)-N-(2-(2-(2-((2-(2,6-dioxopiperidin-3-yl)-1,3-dioxoisoindolin-4-yl)amino)ethoxy)ethoxy)ethyl)butanamide]
- degradation of luciferase (eDHFR-Luc [1]): degraded
- CAR expression remaining, percent of maximum CAR expression ([2]; as early as 4 hours post-incubation, relative to vehicle control): 20 % of maximum CAR expression
- degradation / downregulation of CAR molecules from the surface of CAR T cells [2]: leads to degradation of CAR molecules from the surface of CAR T cells
- degradation / downregulation of CAR molecules from the surface of CAR T cells ([2]; listed as TMP-POM 7c): effectively downregulates CAR in a dose-dependent and reversible manner
- degradation of eDHFR-luc (eDHFR-Luc [3]; 12 h): 90%
- degradation of eDHFR-luc (eDHFR-Luc [3]; 24 h): 95%
- time following washout for CAR expression to return to baseline [4]: ~72 h
- time following washout for CAR expression to start recovering [4]: around 24 hours
- mechanism of CAR downregulation [5]: proteosome-mediated degradation process

Reference: patent US20240226100A1, “CONTROL OF PROTEIN EXPRESSION WITH TMP-PROTAC COMPOUNDS” (THE TRUSTEES OF THE UNIVERSITY OF PENNSYLVANIA, priority 2021, published 2024)
